One data set relates to YAK1 mice lymphoma cells. Kind of data set: binding of 3-125I-phloretin to YAK1 lymphoma cancer cells. How it is done:
(§1) In order to be able to compare the binding to cancer cells with the binding to normal cells, the following experiments are carried out. Binding to certain cancer cells, viz. YAK1 mice lymphoma cells (10^6 cells/ml incubation medium) is compared with binding to erythrocytes of a young healthy person (10^6 cells/ml incubation medium), because erythocytes are typical reference cells for glucose transport studies.
(§2) The incubation media are respectively:
(§3) RPMI buffer pH=8; 11 mM in glucose, and
(§4) RPMI buffer/0.9% NaCl : 1/1.
(§5) Each 1 ml essay contains 5% of foetal calf serum and is spiked (50 μl) with 3-^125 I-phloretin (initial activity is measured). After 15 min incubation at 37° C., the suspension is centrifuged and the precipitate is resuspended with 1 ml cold buffer which is discarded after a second centrifugation. The final radioactive precipitate is suspended in 1 ml water and measured. The bound radioactivity is related to the initial activity.

A further data set has as its system erythrocytes. Description: binding of 3-125I-phloretin to erythrocytes. Details: species or system human. How it is done:
as §1, §2, §3, §4, §5
Saturation binding of 3-^125 I-phloretin to 5.10^6 erythrocytes is performed in RPMI-buffer and Tris-buffer of pH 8. The binding experiments are performed at pH 8, because this is the pH of the RPMI buffer needed for optimum YAK1 cells growth. Incubation for 15 min at 37° C. Inhibition is studied by pre-incubation (15 min, 37° C.) of the erythrocytes in buffer containing 2.10^-4 M 3-Br-phloretin. After centrifugation, the Br-phloretin--containing solution is discarded and the precipitate washed with ice-cooled buffer. After a second centrifugation, the supernatant is discarded and the cells are resuspended in buffer containing 3-^125 I-phloretin. After incubation for 15 min at 37° C., the same above procedure is applied.
Phloretin is a weak acid (pK is approx. 7.3); only the uncharged (non-dissociated) form inhibits red cell glucose transport (Jennings et al., see above). Therefore the values mentioned hereinafter are corrected for dissociation.

For another data set, the system named is hexokinase. Description: hexokinase-model: inhibition of hexokinase catalysed 6-phosphorilation of glucose. In kind it is biochemical. An excerpt: The "hexokinase-model" is used as a model system for the glucose-transport proteins, which play a paramount role in the glucose metabolism.
A short description of data set [1]: binding in human whole blood (RB/plasma distribution, reversibility). In kind it is in vitro ADME. How it is done: Jennings et al. [J. Gen. Phys., […], 67, 381]have reported the binding of phloretin to whole red blood cells. Their results let to assume that phloretin should enter the erythrocytes and bind to haemoglobine. This should mean that a phloretin-based radiotracer should not be suitable for in vivo use. Therefore the reversibility of the binding is checked. For this purpose 3-^125 I-phloretin is added to whole heparinised blood. This is centrifuged, yielding serum S-*I and red blood portion RB-*I. S-*I and non-radioactive RB (1/1) and respectively non-radioactive S and RB-*I (1/1) are incubated at 37° C. for 15 min and centrifuged. The radioactivity of all the weighed aliquots is measured in a well NaI(Tl) detector.

A short description of data set [2]: in vivo distribution studies in rats. How it is done:
The in vivo distribution in rats is determined by injecting approx. 10μCi of the compound to be evaluated into the tail vein of the test animals. The test animals are sacrificed at appropriate time intervals after injection and the radioactivity of the organs of interest is measured by gamma scintillation counting.

SMILES strings stand for the structures.

From US5780008A, “Polyhdric phenol compounds” (Mallinckrodt Medical, Inc., priority 1997, dated 1998) come the findings set out here.

As to `O=C(CCc1ccc(O)c(Br)c1)c1c(O)cc(O)cc1O` [3-Br-phloretin, 3-bromophloretin], the “decreased binding of 3-125I-phloretin to YAK1 cells” value in the data set with YAK1 mice lymphoma cells (co-incubation of 3-Br-phloretin, 15 min) came out at 30%. In addition, the “bound/free value of 3-125I-phloretin after pre-incubation with inhibitor” value in the data set with erythrocytes (pre-incubation with 2×10^-4 M, 15 min 37° C., blank 0.193, average of 5 experiments) is recorded as 0.081. Also, the “inhibition of 3-125I-phloretin binding to erythrocytes” value in the data set with erythrocytes (pre-incubation with 2×10^-4 M, compared with blank) was found to be 58%.
As for `O=C(CCc1ccc(O)c(I)c1)c1c(O)cc(O)cc1O` [3-I-phloretin], in the data set with hexokinase (versus phloretin), the “inhibition potency for hexokinase relative to the original phloretin” value is given as “approx. 2 times”.
As for `O=C(CCc1ccc(O)c([125I])c1)c1c(O)cc(O)cc1O` [3-^125 I-phloretin], the “increase of uptake to YAK1 lymphoma cancer cells as compared to erythrocytes” value with YAK1 mice lymphoma cells (YAK1 cells versus erythrocytes) is given as > 2 factor. The “nature of binding to plasma-proteins and RB” value in data set [1] is reported as “bound reversibly”. Also, the “high affinity binding in the presence of serum albumine” value with erythrocytes (at equilibrium) is recorded as “remains unchanged”. In the data set with erythrocytes (presence of 3.10^-3 -5.10^-3 M glucose), the “influence of glucose on binding” value is recorded as “hardly influences”. Also, in the data set on erythrocytes (saturation binding 0.1 to 1.2 10^-10 M, Scatchard plot, pH 8), the Bmax is on record as 4.7×10^-15 mol/10^6 erythrocytes. In addition, the “uptake in the heart and muscle in the presence of Br-phloretin (C.A.)” value in data set [2] (C.A. versus N.C.A.) is “decreased uptake”. The “uptake in the lungs (lung versus blood)” value in data set [2] (approx. 10μCi into the tail vein) is recorded as “high uptake”.
As to `O=C(CCc1ccc(O)cc1)c1c(O)cc(O)cc1O` [phloretin, reference compound], the “type of inhibition of hexokinase activity” value in the data set on hexokinase (from Lineweaver-Burck plots, with respect to glucose) is given as “competitive”.
